Laboratory results as given in patent publication US11872312B2, “Neuroprotective liposome compositions and methods for treatment of stroke” (The Board of Regents of The University of Texas System, priority 2012, dated 2024).

Legend:
[1] = system: murine embryonic stem cells; assay: LDH release cytotoxicity test in stem cells; details: 3 mg ELIP/30 μl gas/ml for 4 hours; H2O2 10 mM for 2 hours
Protocol: Cells were treated with Xe-reagents (3 mg ELIP/30 μl gas/ml) and control medium for 4 hours, and 2 hours before the end of cultures; 10 mM H2O2 was added.
The cell viability was determined by assessing the release of LDH.

[2] = target: tPA activity on porcine blood clot (Homo sapiens, UniProt P00750); assay: Thrombolytic efficiency of tPA on porcine blood clot in presence of Xe-ELIP or free Xe; details: 30 minute incorporation with tPA
tPA activity on porcine blood clot, sequence (P00750 36-562): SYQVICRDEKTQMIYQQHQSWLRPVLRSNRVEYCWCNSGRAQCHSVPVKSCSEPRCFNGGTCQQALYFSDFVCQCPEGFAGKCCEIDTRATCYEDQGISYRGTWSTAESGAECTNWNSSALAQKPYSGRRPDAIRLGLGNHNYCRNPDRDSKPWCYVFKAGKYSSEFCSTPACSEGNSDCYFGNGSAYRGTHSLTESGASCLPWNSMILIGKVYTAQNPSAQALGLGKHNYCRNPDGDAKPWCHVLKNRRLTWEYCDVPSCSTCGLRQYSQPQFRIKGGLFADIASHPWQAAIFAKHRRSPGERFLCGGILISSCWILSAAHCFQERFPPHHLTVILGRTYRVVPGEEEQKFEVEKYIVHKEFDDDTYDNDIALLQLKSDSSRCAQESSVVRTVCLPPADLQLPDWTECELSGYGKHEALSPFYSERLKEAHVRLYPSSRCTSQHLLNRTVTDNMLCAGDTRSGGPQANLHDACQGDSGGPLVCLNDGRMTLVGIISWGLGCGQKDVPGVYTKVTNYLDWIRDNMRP
Protocol: Neuroprotective combination therapy may minimize the harmful effects of ischemic neuronal damage. […] The thrombolytic effect of tPA was inhibited after 30 minute incorporation with free Xe (Xe saturated solution).

Row | SMILES | LDH release (cytotoxicity) [1] | thrombolytic effect of tPA [2]
1 | OO [H2O2, Hydrogen Peroxide] | significant LDH release | 
2 | [Xe] [free Xe] |  | inhibited
